# In PubChem BioAssay AID1259407 (Chemical Carcinogenesis Research Information System (CCRIS), 2018):
# The source made the active and inactive calls. How the calls were made is not given here.
# Tested on: CCRIS mutagenicity, Ames/micronucleus/aberration tests
# Assay: CCRIS mutagenicity studies
# [1] = Test System: AMES SALMONELLA TYPHIMURIUM, Strain/Indicator: TA98, Metabolic Activation: NONE, Method: PREINCUBATION
# [2] = Test System: AMES SALMONELLA TYPHIMURIUM, Strain/Indicator: TA100, Metabolic Activation: NONE, Method: PREINCUBATION
# [3] = Test System: AMES SALMONELLA TYPHIMURIUM, Strain/Indicator: TA1538, Metabolic Activation: RAT, LIVER, S-9, AROCLOR 1254, Method: STANDARD PLATE
# [4] = Test System: AMES SALMONELLA TYPHIMURIUM, Strain/Indicator: TA100, Metabolic Activation: NONE, Method: STANDARD PLATE
smiles,measurement,setting,value
Clc1ccc(C(c2ccc(Cl)cc2)C(Cl)(Cl)Cl)cc1,mutagenic call,"Test System: AMES SALMONELLA TYPHIMURIUM, Strain/Indicator: TA97, Metabolic Activation: HAMSTER, LIVER, S-9, AROCLOR 1254 (10 OR 30%), Method: PREINCUBATION",inactive; negative
same,mutagenic call,"Test System: AMES SALMONELLA TYPHIMURIUM, Strain/Indicator: TA97, Metabolic Activation: NONE, Method: PREINCUBATION",inactive; negative
same,mutagenic call,"Test System: AMES SALMONELLA TYPHIMURIUM, Strain/Indicator: TA97, Metabolic Activation: RAT, LIVER, S-9, AROCLOR 1254 (10 OR 30%), Method: PREINCUBATION",inactive; negative
same,mutagenic call,"Test System: AMES SALMONELLA TYPHIMURIUM, Strain/Indicator: TA98, Metabolic Activation: HAMSTER, LIVER, S-9, AROCLOR 1254 (10 OR 30%), Method: PREINCUBATION",inactive; negative
same,mutagenic call,[1],inactive; negative
same,mutagenic call,"Test System: AMES SALMONELLA TYPHIMURIUM, Strain/Indicator: TA98, Metabolic Activation: RAT, LIVER, S-9, AROCLOR 1254 (10 OR 30%), Method: PREINCUBATION",inactive; negative
same,mutagenic call,"Test System: AMES SALMONELLA TYPHIMURIUM, Strain/Indicator: TA100, Metabolic Activation: HAMSTER, LIVER, S-9, AROCLOR 1254 (10 OR 30%), Method: PREINCUBATION",inactive; negative
same,mutagenic call,[2],inactive; negative
same,mutagenic call,"Test System: AMES SALMONELLA TYPHIMURIUM, Strain/Indicator: TA100, Metabolic Activation: RAT, LIVER, S-9, AROCLOR 1254 (10 OR 30%), Method: PREINCUBATION",inactive; negative
same,mutagenic call,"Test System: AMES SALMONELLA TYPHIMURIUM, Strain/Indicator: TA1535, Metabolic Activation: HAMSTER, LIVER, S-9, AROCLOR 1254 (10 OR 30%), Method: PREINCUBATION",inactive; negative
same,mutagenic call,"Test System: AMES SALMONELLA TYPHIMURIUM, Strain/Indicator: TA1535, Metabolic Activation: NONE, Method: PREINCUBATION",inactive; negative
same,mutagenic call,"Test System: AMES SALMONELLA TYPHIMURIUM, Strain/Indicator: TA1535, Metabolic Activation: RAT, LIVER, S-9, AROCLOR 1254 (10 OR 30%), Method: PREINCUBATION",inactive; negative
same,mutagenic call,"Test System: AMES SALMONELLA TYPHIMURIUM, Strain/Indicator: TA1537, Metabolic Activation: HAMSTER, LIVER, S-9, AROCLOR 1254 (30%), Method: PREINCUBATION",inactive; negative
same,mutagenic call,"Test System: AMES SALMONELLA TYPHIMURIUM, Strain/Indicator: TA1537, Metabolic Activation: NONE, Method: PREINCUBATION",inactive; negative
same,mutagenic call,"Test System: AMES SALMONELLA TYPHIMURIUM, Strain/Indicator: TA1537, Metabolic Activation: RAT, LIVER, S-9, AROCLOR 1254 (30%), Method: PREINCUBATION",inactive; negative
same,mutagenic call,"Test System: CHINESE HAMSTER V-79, Strain/Indicator: V-79/8-AZAGUANINE, Metabolic Activation: NONE, Method: STANDARD PLATE",active; positive
Cc1cc(=O)oc2c3c4c(cc12)CCCN4CCC3,mutagenic call,"Test System: AMES SALMONELLA TYPHIMURIUM, Strain/Indicator: TA1538, Metabolic Activation: NONE, Method: STANDARD PLATE",inactive; negative
same,mutagenic call,[3],active; positive
c1ccc2[nH]c(-c3cscn3)nc2c1,mutagenic call,"End Point: IN VITRO MICRONUCLEUS, Test System: HUMAN LYMPHOBLASTOID WTK1 CELLS, Metabolic Activation: NONE",active; positive; uva radiation was 250 uw/cm2
same,mutagenic call,"End Point: IN VITRO MICRONUCLEUS, Test System: V79 CELLS, Metabolic Activation: NONE",active; positive
same,mutagenic call,"Test System: AMES SALMONELLA TYPHIMURIUM, Strain/Indicator: TA97, Metabolic Activation: NONE, BACTERIA IRRADIATED IN PRESENCE OF TEST COMPOUND WITH UVA FOR 10 MIN, TRANSFERRED TO MEDIUM, Metabolic Activation: NONE, BACTERIA IRRADIATED IN PRESENCE OF TEST COMPOUND WITH UVA FOR 10 MIN, TRANSFERRED TO MEDIUM, Method: STANDARD PLATE",active; positive; uva was 250 uw/cm2
same,mutagenic call,"Test System: AMES SALMONELLA TYPHIMURIUM, Strain/Indicator: TA98, Metabolic Activation: HAMSTER, LIVER, S-9, AROCLOR 1254 (5 OR 30%), Method: PREINCUBATION",inactive; negative
same,mutagenic call,"Test System: AMES SALMONELLA TYPHIMURIUM, Strain/Indicator: TA98, Metabolic Activation: HAMSTER, LIVER, S-9, AROCLOR 1254 (10%), Method: PREINCUBATION",active; positive
same,mutagenic call,"Test System: AMES SALMONELLA TYPHIMURIUM, Strain/Indicator: TA98, Metabolic Activation: NONE, BACTERIA IRRADIATED IN PRESENCE OF TEST COMPOUND WITH UVA FOR 10 MIN, TRANSFERRED TO MEDIUM, Metabolic Activation: NONE, BACTERIA IRRADIATED IN PRESENCE OF TEST COMPOUND WITH UVA FOR 10 MIN, TRANSFERRED TO MEDIUM, Method: STANDARD PLATE",active; positive; response was just barely positive; uva was 250 uw/cm2
same,mutagenic call,[1],inactive; negative
same,mutagenic call,"Test System: AMES SALMONELLA TYPHIMURIUM, Strain/Indicator: TA98, Metabolic Activation: RAT, LIVER, S-9, AROCLOR 1254 (30%), Method: PREINCUBATION",inactive; negative
same,mutagenic call,"Test System: AMES SALMONELLA TYPHIMURIUM, Strain/Indicator: TA100, Metabolic Activation: HAMSTER, LIVER, S-9, AROCLOR 1254 (30%), Method: PREINCUBATION",inactive; negative
same,mutagenic call,"Test System: AMES SALMONELLA TYPHIMURIUM, Strain/Indicator: TA100, Metabolic Activation: NONE, BACTERIA IRRADIATED IN PRESENCE OF TEST COMPOUND WITH UVA FOR 10 MIN, TRANSFERRED TO MEDIUM, Metabolic Activation: NONE, BACTERIA IRRADIATED IN PRESENCE OF TEST COMPOUND WITH UVA FOR 10 MIN, TRANSFERRED TO MEDIUM, Method: STANDARD PLATE",active; positive; uva was 250 uw/cm2
same,mutagenic call,[2],inactive; negative
same,mutagenic call,"Test System: AMES SALMONELLA TYPHIMURIUM, Strain/Indicator: TA100, Metabolic Activation: RAT, LIVER, S-9, AROCLOR 1254 (30%), Method: PREINCUBATION",inactive; negative
same,mutagenic call,"Test System: AMES SALMONELLA TYPHIMURIUM, Strain/Indicator: TA104, Metabolic Activation: NONE, BACTERIA IRRADIATED IN PRESENCE OF TEST COMPOUND WITH UVA FOR 10 MIN, TRANSFERRED TO MEDIUM, Metabolic Activation: NONE, BACTERIA IRRADIATED IN PRESENCE OF TEST COMPOUND WITH UVA FOR 10 MIN, TRANSFERRED TO MEDIUM, Method: STANDARD PLATE",active; positive; uva was 250 uw/cm2
same,mutagenic call,"Test System: E. COLI, Strain/Indicator: WP2S/PKM101, Metabolic Activation: NONE, BACTERIA IRRADIATED IN PRESENCE OF TEST COMPOUND WITH UVA FOR 10 MIN, TRANSFERRED TO MEDIUM, Metabolic Activation: NONE, BACTERIA IRRADIATED IN PRESENCE OF TEST COMPOUND WITH UVA FOR 10 MIN, TRANSFERRED TO MEDIUM, Method: STANDARD PLATE",active; positive; uva was 250 uw/cm2
CC(=O)Nc1ccc2c(c1)Cc1cccc(O)c1-2,mutagenic call,"Test System: AMES SALMONELLA TYPHIMURIUM, Strain/Indicator: TA98, Metabolic Activation: RAT, LIVER, S-9, AROCLOR 1254, Method: STANDARD PLATE",active; positive
same,mutagenic call,"Test System: AMES SALMONELLA TYPHIMURIUM, Strain/Indicator: TA100, Metabolic Activation: RAT, LIVER, S-9, AROCLOR 1254, Method: STANDARD PLATE",active; positive
same,mutagenic call,[3],active; positive
O=[N+]([O-])c1ccc2ccc3cc4c(c5ccc1c2c35)CCCC4,mutagenic call,"Test System: AMES SALMONELLA TYPHIMURIUM, Strain/Indicator: TA98, Metabolic Activation: NONE, Method: STANDARD PLATE",active; positive
same,mutagenic call,[4],inactive; negative
CCCCN(C[C@@H](CO)Cc1ccccc1)N=O,mutagenic call,[2],inactive; negative
same,mutagenic call,"Test System: AMES SALMONELLA TYPHIMURIUM, Strain/Indicator: TA100, Metabolic Activation: RAT, LIVER, S-9, PCB, Method: PREINCUBATION",active; positive
C=C(Br)C=O,mutagenic call,"Test System: AMES SALMONELLA TYPHIMURIUM, Strain/Indicator: TA100, Metabolic Activation: NONE, Method: LIQUID INCUBATION",active; positive
same,mutagenic call,[2],active; positive
same,mutagenic call,"Test System: AMES SALMONELLA TYPHIMURIUM, Strain/Indicator: TA100, Metabolic Activation: NONE, Method: PREINCUBATION, LIQUID INCUBATION",active; positive
same,mutagenic call,[4],active; positive
same,mutagenic call,"Test System: AMES SALMONELLA TYPHIMURIUM, Strain/Indicator: TA100, Metabolic Activation: RAT, LIVER, MICROSOMES, Method: PREINCUBATION",active; positive
same,mutagenic call,"Test System: AMES SALMONELLA TYPHIMURIUM, Strain/Indicator: TA104, Metabolic Activation: NONE, Method: PREINCUBATION",active; positive
same,mutagenic call,"Test System: AMES SALMONELLA TYPHIMURIUM, Strain/Indicator: TA1535, Metabolic Activation: NONE, Method: LIQUID INCUBATION",active; positive
same,mutagenic call,"Test System: AMES SALMONELLA TYPHIMURIUM, Strain/Indicator: TA1535, Metabolic Activation: NONE, Method: PREINCUBATION, LIQUID INCUBATION",active; positive
same,mutagenic call,"Test System: UDS RAT HEPATOCYTES, Strain/Indicator: THY INCORP, Metabolic Activation: NONE",inactive; negative
